Source: patent US7728012B2, “Carboxamide compounds and their use as calpain inhibitors” (Abbott GmbH & Co. KG, priority 2006, dated 2010)

What was measured:
Assay type in all cases: biochemical
[1] = molecular target: T1, calpain-I isolated from human erythrocytes (Homo sapiens, UniProt P07384); assay: Calpain I kinetic fluorescence enzyme inhibition assay; conditions: apparent Ki from IC50 by Cheng-Prussoff; average of 2 to 4 dose-effect plots
T1 construct: calpain-I—isolated from human erythrocytes; purchased Calbiochem 208713; host or cells: human erythrocytes (tissue isolate)
T1 sequence (P07384 1-714): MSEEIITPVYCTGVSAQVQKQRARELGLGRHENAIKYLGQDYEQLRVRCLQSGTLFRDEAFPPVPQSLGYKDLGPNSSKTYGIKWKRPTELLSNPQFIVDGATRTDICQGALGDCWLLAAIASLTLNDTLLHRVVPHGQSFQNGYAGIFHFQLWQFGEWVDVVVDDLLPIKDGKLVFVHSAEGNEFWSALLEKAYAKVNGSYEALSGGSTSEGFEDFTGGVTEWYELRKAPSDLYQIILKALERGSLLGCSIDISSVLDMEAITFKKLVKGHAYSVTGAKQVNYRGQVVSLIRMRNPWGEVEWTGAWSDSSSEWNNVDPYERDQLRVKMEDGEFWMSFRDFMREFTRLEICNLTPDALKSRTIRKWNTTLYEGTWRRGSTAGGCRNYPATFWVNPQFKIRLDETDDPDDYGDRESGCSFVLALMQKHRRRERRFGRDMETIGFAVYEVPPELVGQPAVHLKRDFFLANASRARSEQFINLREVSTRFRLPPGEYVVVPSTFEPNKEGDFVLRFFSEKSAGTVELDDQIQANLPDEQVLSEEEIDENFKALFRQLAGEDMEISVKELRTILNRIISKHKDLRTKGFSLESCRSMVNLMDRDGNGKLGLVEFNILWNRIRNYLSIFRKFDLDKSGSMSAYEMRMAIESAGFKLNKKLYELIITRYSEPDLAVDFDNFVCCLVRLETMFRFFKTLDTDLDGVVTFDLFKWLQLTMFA
T1 sequence (P04632 1-268 partner): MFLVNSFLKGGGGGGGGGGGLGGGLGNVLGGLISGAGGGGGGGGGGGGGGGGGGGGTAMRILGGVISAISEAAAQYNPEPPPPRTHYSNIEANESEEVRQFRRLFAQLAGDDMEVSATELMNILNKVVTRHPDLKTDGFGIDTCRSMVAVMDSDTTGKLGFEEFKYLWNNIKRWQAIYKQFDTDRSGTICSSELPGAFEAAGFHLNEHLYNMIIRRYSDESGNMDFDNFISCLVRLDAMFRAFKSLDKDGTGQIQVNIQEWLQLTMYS

[2] = molecular target: T2, cathepsin B isolated from human liver (Homo sapiens, UniProt P07858); assay: Cathepsin B kinetic fluorescence enzyme inhibition assay; conditions: selectivity ratio versus calpain I
T2 construct: cathepsin B—isolated from human liver; purchased Calbiochem 219362; host or cells: human liver (tissue isolate)
How it was run: (§1)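 cat B 0.25 nM + Z-Phe-Arg-AMC 100 μM; cat L 1 nM + Z-Phe-Arg-AMC 2 μM; cat S 0.5 nM (E. coli-expressed) + Z-Val-Val-Arg-AMC 20 μM. 50 mM MES pH 6.0, 2.5 mM L-Cys, RT. Ex 390/em 460, kinetic; Ki app = Cheng-Prusoff from IC50, mean of 2–4 curves.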

[3] = molecular target: T3, cathepsin K activated from recombinant human procathepsin K (Homo sapiens, UniProt P43235); assay: Cathepsin K kinetic fluorescence enzyme inhibition assay; conditions: selectivity ratio versus calpain I
T3 construct: purchased Calbiochem 342001; host or cells: E. coli
T3 sequence (P43235 115-329): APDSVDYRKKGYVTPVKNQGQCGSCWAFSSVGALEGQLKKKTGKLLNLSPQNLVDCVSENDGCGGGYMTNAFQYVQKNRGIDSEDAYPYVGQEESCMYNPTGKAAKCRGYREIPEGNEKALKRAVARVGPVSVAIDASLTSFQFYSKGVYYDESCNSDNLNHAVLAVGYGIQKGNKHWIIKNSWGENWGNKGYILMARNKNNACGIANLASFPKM

[4] = molecular target: T4, cathepsin L isolated from human liver (Homo sapiens, UniProt P07711); assay: Cathepsin L kinetic fluorescence enzyme inhibition assay; conditions: selectivity ratio versus calpain I
T4 construct: cathepsin L—isolated from human liver; purchased Calbiochem 219402; host or cells: human liver (tissue isolate)
How it was run: as §1

[5] = molecular target: T5, recombinant human cathepsin S (Homo sapiens, UniProt P25774); assay: Cathepsin S kinetic fluorescence enzyme inhibition assay; conditions: selectivity ratio versus calpain I
T5 construct: purchased Calbiochem 219343; host or cells: E. coli
How it was run: as §1

T4 sequence (P07711 114-333): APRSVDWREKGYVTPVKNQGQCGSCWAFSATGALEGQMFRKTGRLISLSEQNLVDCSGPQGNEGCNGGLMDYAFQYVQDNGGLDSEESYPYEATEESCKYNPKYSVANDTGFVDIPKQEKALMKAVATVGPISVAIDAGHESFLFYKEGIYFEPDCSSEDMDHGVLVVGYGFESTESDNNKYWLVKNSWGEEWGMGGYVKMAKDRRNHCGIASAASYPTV
T5 sequence (P25774 115-331): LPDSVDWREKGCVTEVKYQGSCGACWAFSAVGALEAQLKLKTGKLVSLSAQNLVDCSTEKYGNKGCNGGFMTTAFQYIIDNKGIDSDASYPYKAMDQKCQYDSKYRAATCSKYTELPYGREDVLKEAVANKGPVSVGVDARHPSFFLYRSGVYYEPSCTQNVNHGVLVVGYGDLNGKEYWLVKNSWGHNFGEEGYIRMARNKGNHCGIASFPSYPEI

Compound | Ki [1] [nM] | Sel cat. B (Ki(cathepsin B)/Ki(calpain) ratio) [2] | Sel cat. K (Ki(cathepsin K)/Ki(calpain) ratio) [3] | Sel cat. L (Ki(cathepsin L)/Ki(calpain) ratio) [4] | Sel cat. S (Ki(cathepsin S)/Ki(calpain) ratio) [5]
NC(=O)C(=O)C(Cc1ccccc1)NC(=O)c1cccnc1-n1ccc(-c2cccc3ccccc23)n1 (stereo not shown) [Example 110, N-[3-Amino-2,3-dioxo-1-(phenylmethyl)propyl]-2-(3-naphthalen-1-yl-1H-pyrazol-1-yl)pyridine-3-carboxamide] | ≤ 40 | ++ (Ki(cathepsin B)/Ki(calpain) ratio of ≧30) | ++ (Ki(cathepsin K)/Ki(calpain) ratio of ≧30) | ++ (Ki(cathepsin L)/Ki(calpain) ratio of ≧50) | ++ (Ki(cathepsin S)/Ki(calpain) ratio of ≧100)
COc1ccc(CC(NC(=O)c2cccnc2-n2ccc(-c3ccc(F)cc3Cl)n2)C(=O)C(N)=O)cc1 (stereo not shown) [Example 111, N-(3-Amino-1-{[4-(methyloxy)phenyl]methyl}-2,3-dioxopropyl)-2-[3-(2-chloro-4-fluorophenyl)-1H-pyrazol-1-yl]pyridine-3-carboxamide] | ≤ 40 | ++ (Ki(cathepsin B)/Ki(calpain) ratio of ≧30) | ++ (Ki(cathepsin K)/Ki(calpain) ratio of ≧30) | ++ (Ki(cathepsin L)/Ki(calpain) ratio of ≧50) | ++ (Ki(cathepsin S)/Ki(calpain) ratio of ≧100)
NC(=O)C(=O)C(Cc1ccc(F)cc1)NC(=O)c1cccnc1-n1ccc(-c2ccc(Cl)cc2Cl)n1 (stereo not shown) [Example 114, N-{-3-Amino-1-[(4-fluorophenyl)methyl]-2,3-dioxopropyl}-2-[3-(2,4-dichlorophenyl)-1H-pyrazol-1-yl]pyridine-3-carboxamide] | 40 to 100 | ++ (Ki(cathepsin B)/Ki(calpain) ratio of ≧30) | ++ (Ki(cathepsin K)/Ki(calpain) ratio of ≧30) | ++ (Ki(cathepsin L)/Ki(calpain) ratio of ≧50) | ++ (Ki(cathepsin S)/Ki(calpain) ratio of ≧100)
COc1ccc(-c2ccn(-c3ncccc3C(=O)NC(Cc3ccccc3)C(=O)C(N)=O)n2)c(OC)c1 (stereo not shown) [Example 117, N-[3-Amino-2,3-dioxo-1-(phenylmethyl)propyl]-2-{3-[2,4-bis(methyloxy)phenyl]-1H-pyrazol-1-yl}pyridine-3-carboxamide] | ≤ 40 | ++ (Ki(cathepsin B)/Ki(calpain) ratio of ≧30) | ++ (Ki(cathepsin K)/Ki(calpain) ratio of ≧30) | ++ (Ki(cathepsin L)/Ki(calpain) ratio of ≧50) | ++ (Ki(cathepsin S)/Ki(calpain) ratio of ≧100)
NC(=O)C(=O)C(Cc1ccccc1)NC(=O)c1cccnc1-n1ccc(-c2cccc3c2OC(F)(F)O3)n1 (stereo not shown) [Example 119, N-[3-Amino-2,3-dioxo-1-(phenylmethyl)propyl]-2-[3-(2,2-difluoro-1,3-benzodioxol-4-yl)-1H-pyrazol-1-yl]pyridine-3-carboxamide] | ≤ 40 | ++ (Ki(cathepsin B)/Ki(calpain) ratio of ≧30) | ++ (Ki(cathepsin K)/Ki(calpain) ratio of ≧30) | ++ (Ki(cathepsin L)/Ki(calpain) ratio of ≧50) | ++ (Ki(cathepsin S)/Ki(calpain) ratio of ≧100)

Now from value to molecule, other results behind:

Ki [1] [nM] | Compound | Sel cat. B (Ki(cathepsin B)/Ki(calpain) ratio) [2] | Sel cat. K (Ki(cathepsin K)/Ki(calpain) ratio) [3] | Sel cat. L (Ki(cathepsin L)/Ki(calpain) ratio) [4] | Sel cat. S (Ki(cathepsin S)/Ki(calpain) ratio) [5]
≤ 40 | NC(=O)C(=O)C(Cc1ccccc1)NC(=O)c1cccnc1-n1ccc(-c2cc(Cl)ccc2Cl)n1 (stereo not shown) [Example 112, N-[3-Amino-2,3-dioxo-1-(phenylmethyl)propyl]-2-[3-(2,5-dichlorophenyl)-1H-pyrazol-1-yl]pyridine-3-carboxamide] | ++ (Ki(cathepsin B)/Ki(calpain) ratio of ≧30) | ++ (Ki(cathepsin K)/Ki(calpain) ratio of ≧30) | ++ (Ki(cathepsin L)/Ki(calpain) ratio of ≧50) | ++ (Ki(cathepsin S)/Ki(calpain) ratio of ≧100)
≤ 40 | NC(=O)C(=O)C(Cc1ccccc1)NC(=O)c1cccnc1-n1ccc(-c2cccc(Cl)c2Cl)n1 (stereo not shown) [Example 115, N-[3-Amino-2,3-dioxo-1-(phenylmethyl)propyl]-2-[3-(2,3-dichlorophenyl)-1H-pyrazol-1-yl]pyridine-3-carboxamide] | ++ (Ki(cathepsin B)/Ki(calpain) ratio of ≧30) | ++ (Ki(cathepsin K)/Ki(calpain) ratio of ≧30) | ++ (Ki(cathepsin L)/Ki(calpain) ratio of ≧50) | ++ (Ki(cathepsin S)/Ki(calpain) ratio of ≧100)
≤ 40 | NC(=O)C(=O)C(Cc1ccccc1)NC(=O)c1cccnc1-n1ccc(-c2c(F)cc(F)cc2F)n1 (stereo not shown) [Example 116, N-[3-Amino-2,3-dioxo-1-(phenylmethyl)propyl]-2-[3-(2,4,6-trifluorophenyl)-1H-pyrazol-1-yl]pyridine-3-carboxamide] | ++ (Ki(cathepsin B)/Ki(calpain) ratio of ≧30) | + (10≦Ki(cathepsin K)/Ki(calpain)<30) | ++ (Ki(cathepsin L)/Ki(calpain) ratio of ≧50) | ++ (Ki(cathepsin S)/Ki(calpain) ratio of ≧100)
≤ 40 | NC(=O)C(=O)C(Cc1ccccc1)NC(=O)c1cccnc1-n1ccc(-c2ccc3c(c2)OC(F)(F)O3)n1 (stereo not shown) [Example 118, N-[3-Amino-2,3-dioxo-1-(phenylmethyl)propyl]-2-[3-(2,2-difluoro-1,3-benzodioxol-5-yl)-1H-pyrazol-1-yl]pyridine-3-carboxamide] | ++ (Ki(cathepsin B)/Ki(calpain) ratio of ≧30) | + (10≦Ki(cathepsin K)/Ki(calpain)<30) | ++ (Ki(cathepsin L)/Ki(calpain) ratio of ≧50) | ++ (Ki(cathepsin S)/Ki(calpain) ratio of ≧100)
≤ 40 | NC(=O)C(=O)C(Cc1ccccc1)NC(=O)c1cccnc1-n1ccc(-c2c(F)ccc(Cl)c2Cl)n1 (stereo not shown) [Example 120, N-[3-Amino-2,3-dioxo-1-(phenylmethyl)propyl]-2-[3-(2,3-dichloro-6-fluorophenyl)-1H-pyrazol-1-yl]pyridine-3-carboxamide] | ++ (Ki(cathepsin B)/Ki(calpain) ratio of ≧30) | ++ (Ki(cathepsin K)/Ki(calpain) ratio of ≧30) | + (30≦Ki(cathepsin L)/Ki(calpain)<50) | ++ (Ki(cathepsin S)/Ki(calpain) ratio of ≧100)
≤ 40 | COc1c(C)cc(C)cc1-c1ccn(-c2ncccc2C(=O)NC(Cc2ccccc2)C(=O)C(N)=O)n1 (stereo not shown) [Example 121, N-[3-Amino-2,3-dioxo-1-(phenylmethyl)propyl]-2-{3-[3,5-dimethyl-2-(methyloxy)phenyl]-1H-pyrazol-1-yl}pyridine-3-carboxamide] | ++ (Ki(cathepsin B)/Ki(calpain) ratio of ≧30) | ++ (Ki(cathepsin K)/Ki(calpain) ratio of ≧30) | ++ (Ki(cathepsin L)/Ki(calpain) ratio of ≧50) | ++ (Ki(cathepsin S)/Ki(calpain) ratio of ≧100)
